According to the NIST ThermoML archive (doi:10.1016/j.jct.2018.03.013):
Numbers after ± are expanded uncertainties.

Test: xn = mol fraction of the nth substance listed
Conditions: 100 kPa, Liquid; for speed of sound: Frequency=3 MHz, Linear variable-path acoustic interferometer; for mass density: Pycnometric method

## C=C(C)C(=O)OCC [ethyl 2-methylpropenoate] + CC#N
293.15 K, x2 = 0
  speed of sound: 1196.8 ± 1.6 m/s
  mass density: 912.3 ± 1 kg/m3
293.15 K, x2 = 0.0556
  speed of sound: 1200.9 ± 1.6 m/s
  mass density: 909.47 ± 1 kg/m3
293.15 K, x2 = 0.1112
  speed of sound: 1205 ± 1.6 m/s
  mass density: 906.38 ± 1 kg/m3
293.15 K, x2 = 0.1631
  speed of sound: 1208.8 ± 1.6 m/s
  mass density: 903.24 ± 1 kg/m3
293.15 K, x2 = 0.2147
  speed of sound: 1212.6 ± 1.6 m/s
  mass density: 899.86 ± 1 kg/m3
293.15 K, x2 = 0.2795
  speed of sound: 1217.4 ± 1.6 m/s
  mass density: 895.21 ± 1 kg/m3
293.15 K, x2 = 0.3446
  speed of sound: 1222.2 ± 1.6 m/s
  mass density: 890.04 ± 1 kg/m3
293.15 K, x2 = 0.4132
  speed of sound: 1227.4 ± 1.6 m/s
  mass density: 883.98 ± 1 kg/m3
293.15 K, x2 = 0.4819
  speed of sound: 1232.8 ± 1.6 m/s
  mass density: 877.18 ± 1 kg/m3
293.15 K, x2 = 0.5597
  speed of sound: 1239.5 ± 1.6 m/s
  mass density: 868.44 ± 1 kg/m3
293.15 K, x2 = 0.6375
  speed of sound: 1246.9 ± 1.6 m/s
  mass density: 858.38 ± 1 kg/m3
293.15 K, x2 = 0.7251
  speed of sound: 1256.4 ± 1.6 m/s
  mass density: 845.11 ± 1 kg/m3
293.15 K, x2 = 0.8113
  speed of sound: 1267.7 ± 1.6 m/s
  mass density: 829.5 ± 1 kg/m3
293.15 K, x2 = 0.9014
  speed of sound: 1282.6 ± 1.6 m/s
  mass density: 809.62 ± 1 kg/m3
293.15 K, x2 = 0.9542
  speed of sound: 1293.4 ± 1.6 m/s
  mass density: 795.78 ± 1 kg/m3
298.15 K, x2 = 0
  speed of sound: 1176.9 ± 1.6 m/s
  mass density: 907.18 ± 1 kg/m3
298.15 K, x2 = 0.0556
  speed of sound: 1181 ± 1.6 m/s
  mass density: 904.36 ± 1 kg/m3
298.15 K, x2 = 0.1112
  speed of sound: 1185.1 ± 1.6 m/s
  mass density: 901.28 ± 1 kg/m3
298.15 K, x2 = 0.1631
  speed of sound: 1188.8 ± 1.6 m/s
  mass density: 898.14 ± 1 kg/m3
298.15 K, x2 = 0.2147
  speed of sound: 1192.5 ± 1.6 m/s
  mass density: 894.76 ± 1 kg/m3
298.15 K, x2 = 0.2795
  speed of sound: 1197.2 ± 1.6 m/s
  mass density: 890.11 ± 1 kg/m3
298.15 K, x2 = 0.3446
  speed of sound: 1201.9 ± 1.6 m/s
  mass density: 884.94 ± 1 kg/m3
298.15 K, x2 = 0.4132
  speed of sound: 1207 ± 1.6 m/s
  mass density: 878.87 ± 1 kg/m3
298.15 K, x2 = 0.4819
  speed of sound: 1212.3 ± 1.6 m/s
  mass density: 872.05 ± 1 kg/m3
298.15 K, x2 = 0.5597
  speed of sound: 1218.8 ± 1.6 m/s
  mass density: 863.29 ± 1 kg/m3
298.15 K, x2 = 0.6375
  speed of sound: 1226 ± 1.6 m/s
  mass density: 853.22 ± 1 kg/m3
298.15 K, x2 = 0.7251
  speed of sound: 1235.4 ± 1.6 m/s
  mass density: 839.92 ± 1 kg/m3
298.15 K, x2 = 0.8113
  speed of sound: 1246.5 ± 1.6 m/s
  mass density: 824.27 ± 1 kg/m3
298.15 K, x2 = 0.9014
  speed of sound: 1261.1 ± 1.6 m/s
  mass density: 804.36 ± 1 kg/m3
298.15 K, x2 = 0.9542
  speed of sound: 1271.8 ± 1.6 m/s
  mass density: 790.5 ± 1 kg/m3
303.15 K, x2 = 0
  speed of sound: 1157.6 ± 1.6 m/s
  mass density: 902.06 ± 1 kg/m3
303.15 K, x2 = 0.0556
  speed of sound: 1161.8 ± 1.6 m/s
  mass density: 899.25 ± 1 kg/m3
303.15 K, x2 = 0.1112
  speed of sound: 1165.9 ± 1.6 m/s
  mass density: 896.18 ± 1 kg/m3
303.15 K, x2 = 0.1631
  speed of sound: 1169.6 ± 1.6 m/s
  mass density: 893.05 ± 1 kg/m3
303.15 K, x2 = 0.2147
  speed of sound: 1173.3 ± 1.6 m/s
  mass density: 889.66 ± 1 kg/m3
303.15 K, x2 = 0.2795
  speed of sound: 1177.9 ± 1.6 m/s
  mass density: 885.01 ± 1 kg/m3
303.15 K, x2 = 0.3446
  speed of sound: 1182.6 ± 1.6 m/s
  mass density: 879.82 ± 1 kg/m3
303.15 K, x2 = 0.4132
  speed of sound: 1187.7 ± 1.6 m/s
  mass density: 873.74 ± 1 kg/m3
303.15 K, x2 = 0.4819
  speed of sound: 1193 ± 1.6 m/s
  mass density: 866.92 ± 1 kg/m3
303.15 K, x2 = 0.5597
  speed of sound: 1199.5 ± 1.6 m/s
  mass density: 858.14 ± 1 kg/m3
303.15 K, x2 = 0.6375
  speed of sound: 1206.7 ± 1.6 m/s
  mass density: 848.05 ± 1 kg/m3
303.15 K, x2 = 0.7251
  speed of sound: 1216.2 ± 1.6 m/s
  mass density: 834.72 ± 1 kg/m3
303.15 K, x2 = 0.8113
  speed of sound: 1227.4 ± 1.6 m/s
  mass density: 819.05 ± 1 kg/m3
303.15 K, x2 = 0.9014
  speed of sound: 1242.2 ± 1.6 m/s
  mass density: 799.1 ± 1 kg/m3
303.15 K, x2 = 0.9542
  speed of sound: 1252.9 ± 1.6 m/s
  mass density: 785.22 ± 1 kg/m3
308.15 K, x2 = 0
  speed of sound: 1139.4 ± 1.6 m/s
  mass density: 896.94 ± 1 kg/m3
308.15 K, x2 = 0.0556
  speed of sound: 1143.6 ± 1.6 m/s
  mass density: 894.14 ± 1 kg/m3
308.15 K, x2 = 0.1112
  speed of sound: 1147.7 ± 1.6 m/s
  mass density: 891.07 ± 1 kg/m3
308.15 K, x2 = 0.1631
  speed of sound: 1151.4 ± 1.6 m/s
  mass density: 887.95 ± 1 kg/m3
308.15 K, x2 = 0.2147
  speed of sound: 1155 ± 1.6 m/s
  mass density: 884.57 ± 1 kg/m3
308.15 K, x2 = 0.2795
  speed of sound: 1159.6 ± 1.6 m/s
  mass density: 879.91 ± 1 kg/m3
308.15 K, x2 = 0.3446
  speed of sound: 1164.3 ± 1.6 m/s
  mass density: 874.71 ± 1 kg/m3
308.15 K, x2 = 0.4132
  speed of sound: 1169.3 ± 1.6 m/s
  mass density: 868.61 ± 1 kg/m3
308.15 K, x2 = 0.4819
  speed of sound: 1174.6 ± 1.6 m/s
  mass density: 861.78 ± 1 kg/m3
308.15 K, x2 = 0.5597
  speed of sound: 1181 ± 1.6 m/s
  mass density: 852.99 ± 1 kg/m3
308.15 K, x2 = 0.6375
  speed of sound: 1188.1 ± 1.6 m/s
  mass density: 842.87 ± 1 kg/m3
308.15 K, x2 = 0.7251
  speed of sound: 1197.5 ± 1.6 m/s
  mass density: 829.52 ± 1 kg/m3
308.15 K, x2 = 0.8113
  speed of sound: 1208.6 ± 1.6 m/s
  mass density: 813.82 ± 1 kg/m3
308.15 K, x2 = 0.9014
  speed of sound: 1223.4 ± 1.6 m/s
  mass density: 793.83 ± 1 kg/m3
308.15 K, x2 = 0.9542
  speed of sound: 1234.1 ± 1.6 m/s
  mass density: 779.93 ± 1 kg/m3
313.15 K, x2 = 0
  speed of sound: 1121.5 ± 1.6 m/s
  mass density: 891.83 ± 1 kg/m3
313.15 K, x2 = 0.0556
  speed of sound: 1125.6 ± 1.6 m/s
  mass density: 889.04 ± 1 kg/m3
313.15 K, x2 = 0.1112
  speed of sound: 1129.8 ± 1.6 m/s
  mass density: 885.98 ± 1 kg/m3
313.15 K, x2 = 0.1631
  speed of sound: 1133.5 ± 1.6 m/s
  mass density: 882.85 ± 1 kg/m3
313.15 K, x2 = 0.2147
  speed of sound: 1137.1 ± 1.6 m/s
  mass density: 879.47 ± 1 kg/m3
313.15 K, x2 = 0.2795
  speed of sound: 1141.7 ± 1.6 m/s
  mass density: 874.81 ± 1 kg/m3
313.15 K, x2 = 0.3446
  speed of sound: 1146.3 ± 1.6 m/s
  mass density: 869.6 ± 1 kg/m3
313.15 K, x2 = 0.4132
  speed of sound: 1151.3 ± 1.6 m/s
  mass density: 863.49 ± 1 kg/m3
313.15 K, x2 = 0.4819
  speed of sound: 1156.5 ± 1.6 m/s
  mass density: 856.64 ± 1 kg/m3
313.15 K, x2 = 0.5597
  speed of sound: 1162.9 ± 1.6 m/s
  mass density: 847.83 ± 1 kg/m3
313.15 K, x2 = 0.6375
  speed of sound: 1169.9 ± 1.6 m/s
  mass density: 837.7 ± 1 kg/m3
313.15 K, x2 = 0.7251
  speed of sound: 1179.2 ± 1.6 m/s
  mass density: 824.32 ± 1 kg/m3
313.15 K, x2 = 0.8113
  speed of sound: 1190.3 ± 1.6 m/s
  mass density: 808.59 ± 1 kg/m3
313.15 K, x2 = 0.9014
  speed of sound: 1205 ± 1.6 m/s
  mass density: 788.57 ± 1 kg/m3
313.15 K, x2 = 0.9542
  speed of sound: 1215.7 ± 1.6 m/s
  mass density: 774.64 ± 1 kg/m3
318.15 K, x2 = 0
  speed of sound: 1104.6 ± 1.6 m/s
  mass density: 886.71 ± 1 kg/m3
318.15 K, x2 = 0.0556
  speed of sound: 1108.7 ± 1.6 m/s
  mass density: 883.94 ± 1 kg/m3
318.15 K, x2 = 0.1112
  speed of sound: 1112.8 ± 1.6 m/s
  mass density: 880.88 ± 1 kg/m3
318.15 K, x2 = 0.1631
  speed of sound: 1116.5 ± 1.6 m/s
  mass density: 877.75 ± 1 kg/m3
318.15 K, x2 = 0.2147
  speed of sound: 1120.1 ± 1.6 m/s
  mass density: 874.37 ± 1 kg/m3
318.15 K, x2 = 0.2795
  speed of sound: 1124.6 ± 1.6 m/s
  mass density: 869.7 ± 1 kg/m3
318.15 K, x2 = 0.3446
  speed of sound: 1129.2 ± 1.6 m/s
  mass density: 864.49 ± 1 kg/m3
318.15 K, x2 = 0.4132
  speed of sound: 1134.1 ± 1.6 m/s
  mass density: 858.37 ± 1 kg/m3
318.15 K, x2 = 0.4819
  speed of sound: 1139.2 ± 1.6 m/s
  mass density: 851.5 ± 1 kg/m3
318.15 K, x2 = 0.5597
  speed of sound: 1145.4 ± 1.6 m/s
  mass density: 842.68 ± 1 kg/m3
318.15 K, x2 = 0.6375
  speed of sound: 1152.3 ± 1.6 m/s
  mass density: 832.52 ± 1 kg/m3
318.15 K, x2 = 0.7251
  speed of sound: 1161.4 ± 1.6 m/s
  mass density: 819.12 ± 1 kg/m3
318.15 K, x2 = 0.8113
  speed of sound: 1172.3 ± 1.6 m/s
  mass density: 803.35 ± 1 kg/m3
318.15 K, x2 = 0.9014
  speed of sound: 1186.7 ± 1.6 m/s
  mass density: 783.3 ± 1 kg/m3
318.15 K, x2 = 0.9542
  speed of sound: 1197.3 ± 1.6 m/s
  mass density: 769.35 ± 1 kg/m3
